Data from patent US9260485B2 (priority 2009, dated 2016).
Read-outs that look alike come from different tables or passages of the source. Square brackets hold non-standard residues; d marks the D form. Peptide text beside a SMILES is read from it. ξ: configuration not given here. Hica(2S) = CC(C)C[C@H](O)C(=O)O; ξLac(3-iPr) = CC(C)CC(O)C(=O)O; NMeL = CN[C@@H](CC(C)C)C(=O)O

Assays:
[1] = system: Listeria monocytogenes ATCC 14028; test: Anti-bacterial activity, paper disc clear zone; format: cell-based; conditions: 0.1, 0.5, 1 and 2 mM on paper disc; 37° C., 24 hr
Description: (§1) Assays for antibacterial activity were performed with 3 Gram-positive (Listeria monocytogenes ATCC 14028, Staphylococcus aureus ATCC 35556 and Bacillus cereus ATCC 13061) and 3 Gram-negative bacteria (Escherichia coli ATCC 8739, Pseudomonas aeruginosa ATCC 9026 and Salmonella typhimurium ATCC 14028). Each of the compounds of Chemical Formulas 1 and 2 was dissolved in different concentrations (0.1, 0.5, 1, and 2 mM) in dimethyl sulfoxide (DMSO). The solutions were applied to a sterile paper disc (5 mm diameter), followed by evaporating the DMSO solvent. Bacteria was inoculated at a density of 1×10^7 CFU/ml on Tryptic soy agar (TSA) and then, the paper disc was placed on the bacteria-inoculated agars. After incubation at 37° C. for 24 hr, the clear zone around each disc was observed and its diameter was measured.

[2] = system: Escherichia coli ATCC 8739; test: Anti-bacterial activity, paper disc clear zone; format: cell-based; conditions: 0.1, 0.5, 1 and 2 mM on paper disc; 37° C., 24 hr
Description: as §1

[3] = system: Salmonella typhimurium ATCC 14028; test: Anti-bacterial activity, paper disc clear zone; format: cell-based; conditions: 0.1, 0.5, 1 and 2 mM on paper disc; 37° C., 24 hr
Description: as §1

[4] = system: Bacillus cereus ATCC 13061; test: Anti-bacterial activity, paper disc clear zone; format: cell-based; conditions: 0.1, 0.5, 1 and 2 mM on paper disc; 37° C., 24 hr
Description: as §1

[5] = system: Pseudomonas aeruginosa ATCC 9026; test: Anti-bacterial activity, paper disc clear zone; format: cell-based; conditions: 0.1, 0.5, 1 and 2 mM on paper disc; 37° C., 24 hr
Description: as §1

[6] = system: Staphylococcus aureus ATCC 35556; test: Anti-bacterial activity, paper disc clear zone; format: cell-based; conditions: 0.1, 0.5, 1 and 2 mM on paper disc; 37° C., 24 hr
Description: as §1

Fusarium oxysporum = test: Anti-fungal activity, paper disc on mycelia on PDA; format: cell-based
Description: (§2) Inhibitory activity was performed against four fungus strains (Mucor rouxii, Penicillium citrinum, Fusarium oxysporum, and Aspergillus oryzae).
(§3) Drops of 1 and 10 mM solutions of compounds of Chemical Formulas 1 and 2 in methanol were loaded onto sterile paper discs (8 mm diameter) and the methanol solvent was evaporated under a hood. The paper discs were placed on fungus mycelia grown on potato dextrose agar. After incubation at 25° C. for 48 hr, clear zones around the discs were observed and their diameters were measured. A filter treated with pure methanol was used as a negative control.

Penicillium citrinum = test: Anti-fungal activity, paper disc on mycelia on PDA; format: cell-based; conditions: 1 mM; 25° C., 48 hr
Description: as §2, §3

Aspergillus oryzae = test: Anti-fungal activity, paper disc on mycelia on PDA; format: cell-based; conditions: 1 mM; 25° C., 48 hr
Description: as §2, §3

Mucor rouxii = test: Anti-fungal activity, paper disc on mycelia on PDA; format: cell-based
Description: as §2, §3

[7] = system: MDR cell lines (MES-SA/DX5 and HCT15/CL02); test: Multidrug resistance-reversing activity, summary in words; format: cell-based, Human
Description: The cyclic pentadepsipeptides of Chemical Formulas 1 and 2 were analyzed for MDR-reversing activity by comparing inhibitory activities against multidrug-resistant cancer cell lines (MES-SA/DX5 and HCT15/CL02) with those against non-multidrug-resistant cancer cell lines (MES-SA and HCT15). In this regard, the effects of the cyclic pentadepsipeptides of Chemical Formulas 1 and 2 on paclitaxel's cytotoxicity against MDR tumor cells were measured (Table 6). […].
Therefore, the N-methyl group in the cyclic pentadepsipeptide may be a factor crucial for the expression of the MDR reversal activity. […]

[8] = system: HCT15/CL02 cell line (doxorubicin-selected from HCT15); test: In vitro cytotoxicity, SRB method; format: cell-based, Human
Description: (§4) Known cyclic hexadepsipeptides (beauvericin, enniatin H, I, and MK1688) and the compounds of Chemical Formulas 1 and 2 were evaluated for in vitro cytotoxicity against various non-multidrug-resistant human cancer cell lines and multidrug-resistant cancer cell lines using the SRB method.
(§5) Human non-small-cell lung cancer cell line (A549) ovarian cancer cell line (SK-OV-3), skin cancer cell line (SK-MEL-2), and uterine sarcoma cell line MES-SA and its multi-drug resistant subline (MES-SA/DX5) were purchased from the American Type Culture Collection (USA). Colorectal carcinoma cancer cell line (HCT-15) was provided by the National Cancer Institute (NCI). HCT15/CL02 cell lines were established from HCT15 cells by continuous and stepwise exposure of the cells to doxorubicin in the Korea Research Institute of Chemical Technology (Korea).

[9] = system: MES-SA uterine sarcoma cell line; test: In vitro cytotoxicity, SRB method; format: cell-based, Human; conditions: read-out: EC50 (concentration inhibiting cell growth in vitro by 50%)
Description: as §4, §5

[10] = system: SK-MEL-2 skin cancer cell line; test: In vitro cytotoxicity, SRB method; format: cell-based, Human
Description: as §4, §5

[11] = system: MES-SA/DX5 multi-drug resistant subline; test: In vitro cytotoxicity, SRB method; format: cell-based, Human
Description: as §4, §5

[12] = system: A549 non-small-cell lung cancer cell line; test: In vitro cytotoxicity, SRB method; format: cell-based, Human
Description: as §4, §5

[13] = system: SK-OV-3 ovarian cancer cell line; test: In vitro cytotoxicity, SRB method; format: cell-based, Human
Description: as §4, §5

[14] = system: HCT15 colorectal carcinoma cancer cell line; test: In vitro cytotoxicity, SRB method; format: cell-based, Human
Description: as §4, §5

[15] = system: NCI human tumor cell line screen; conditions: cited from earlier work
[16] = Homo sapiens, HCT-15, read-out: EC50 (concentration inhibiting cell growth in vitro by 50%)
[17] = read-out: EC50 (concentration inhibiting cell growth in vitro by 50%), HCT15/CL02
[18] = read-out: EC50 (concentration inhibiting cell growth in vitro by 50%), SK-MEL-2
[19] = read-out: EC50 (concentration inhibiting cell growth in vitro by 50%), MES-SA/DX5
[20] = read-out: EC50 (concentration inhibiting cell growth in vitro by 50%), A549
[21] = read-out: EC50 (concentration inhibiting cell growth in vitro by 50%), SK-OV-3
[22] = read-out: EC50 (concentration inhibiting cell growth in vitro by 50%), HCT15

## CC(C)CC1OC(=O)[C@H](CC(C)C)NC(=O)[C@H](Cc2ccccc2)NC(=O)[C@H](C(C)C)NC(=O)[C@H](CC(C)C)NC1=O (stereo partly drawn) [Com. 1, neo-sansalvamide] (cyclo(FL[ξLac(3-iPr)]LV))
[1]
  Inhibitory activity (clear zone around disc): Neither the compound of Chemical Formula 1 nor Chemical Formula 2 showed inhibitory activity
[2]
  Inhibitory activity (clear zone around disc): Neither the compound of Chemical Formula 1 nor Chemical Formula 2 showed inhibitory activity
[3]
  Inhibitory activity (clear zone around disc): Neither the compound of Chemical Formula 1 nor Chemical Formula 2 showed inhibitory activity
[4]
  Inhibitory activity (clear zone around disc): Neither the compound of Chemical Formula 1 nor Chemical Formula 2 showed inhibitory activity
[5]
  Inhibitory activity (clear zone around disc): Neither the compound of Chemical Formula 1 nor Chemical Formula 2 showed inhibitory activity
[6]
  Inhibitory activity (clear zone around disc): Neither the compound of Chemical Formula 1 nor Chemical Formula 2 showed inhibitory activity
Fusarium oxysporum
  Antifungal test, overall result: inhibitory against Mucor rouxii, and Fusarium oxysporum, weakly
Fusarium oxysporum; 1 mM, 25° C., 48 hr
  Inhibitory activity on mycelial growth: No inhibitory activities were detected
Fusarium oxysporum; 10 mM, 25° C., 48 hr
  Clear zone / inhibitory effect on mycelium: did not produce a clear zone
Penicillium citrinum
  Inhibitory activity on mycelial growth: No inhibitory activities were detected
Aspergillus oryzae
  Inhibitory activity on mycelial growth: No inhibitory activities were detected
Mucor rouxii
  Antifungal test, overall result: inhibitory against Mucor rouxii, and Fusarium oxysporum, weakly
Mucor rouxii; 1 mM, 25° C., 48 hr
  Inhibitory activity on mycelial growth: No inhibitory activities were detected
Mucor rouxii; 10 mM, 25° C., 48 hr
  Clear zone: no clear zones were observed
  Hyphal growth near the paper disc: hyphal growth of Mucor rouxii was reduced
[7]
  Effect on the cytotoxicity of paclitaxel against MDR cell lines: increased the cytotoxicity of paclitaxel against MDR cell lines, but only slightly
[8]; [16]
  EC50: 22.1 ± 2.45 µM
[9]; Homo sapiens
  EC50: 11.8 ± 0.13 µM
[10]; Homo sapiens, SK-MEL-2, read-out: EC50 (concentration inhibiting cell growth in vitro by 50%)
  EC50: 14 ± 1.32 µM
[11]; Homo sapiens, MES-SA/Dx5, read-out: EC50 (concentration inhibiting cell growth in vitro by 50%)
  EC50: 19.4 ± 1.1 µM
[12]; Homo sapiens, A549, read-out: EC50 (concentration inhibiting cell growth in vitro by 50%)
  EC50: 11.7 ± 0.55 µM
[13]; Homo sapiens, SK-OV-3, read-out: EC50 (concentration inhibiting cell growth in vitro by 50%)
  EC50: 10.4 ± 0.64 µM
[14]; [16]
  EC50: 9.95 ± 1 µM

## CC[C@H](C)[C@H]1OC(=O)[C@H](C(C)C)N(C)C(=O)[C@@H](C(C)C)OC(=O)[C@H](C(C)C)N(C)C(=O)[C@@H](C(C)C)OC(=O)[C@H](C(C)C)N(C)C1=O [EN H, enniatin H]
[8]; [17]
  EC50: 17.7 ± 0.49 µM
[9]
  EC50: 12.9 ± 0.23 µM
[10]; [18]
  EC50: 1.77 ± 0.03 µM
[11]; [19]
  EC50: 14.9 ± 0.59 µM
[12]; [20]
  EC50: 1.84 ± 0.11 µM
[13]; [21]
  EC50: 1.71 ± 0.03 µM
[14]; [22]
  EC50: 16.7 ± 0.96 µM

## CC(C)C[C@@H]1NC(=O)[C@H](Cc2ccccc2)NC(=O)[C@H](CC(C)C)N(C)C(=O)[C@H](C(C)C)NC(=O)[C@H](CC(C)C)OC1=O [N-Methylsansalvamide] (cyclo(FL[Hica(2S)]V[NMeL]))
[15]
  GI50: 8.3 µM

## CC[C@H](C)[C@H]1OC(=O)[C@H](C(C)C)N(C)C(=O)[C@@H](C(C)C)OC(=O)[C@H](C(C)C)N(C)C(=O)[C@@H]([C@@H](C)CC)OC(=O)[C@H](C(C)C)N(C)C1=O [EN I, enniatin I]
[8]; [17]
  EC50: 5.88 ± 0.21 µM
[9]
  EC50: 3.94 ± 0.03 µM
[10]; [18]
  EC50: 0.53 ± 0.06 µM
[11]; [19]
  EC50: 4.9 ± 0.27 µM
[12]; [20]
  EC50: 0.5 ± 0.04 µM
[13]; [21]
  EC50: 0.49 ± 0.03 µM
[14]; [22]
  EC50: 5.56 ± 0.22 µM

## CCC(C)C[C@H]1OC(=O)[C@H](C(C)C)N(C)C(=O)[C@@H](CC(C)C)OC(=O)[C@H](C(C)C)N(C)C(=O)[C@@H](C(C)C)OC(=O)[C@H](C(C)C)N(C)C1=O (stereo partly drawn) [EN MK1688, Enniatin MK1688]
[8]; [17]
  EC50: 16.4 ± 0.84 µM
[9]
  EC50: 13.6 ± 1.05 µM
[10]; [18]
  EC50: 0.63 ± 0.01 µM
[11]; [19]
  EC50: 13.6 ± 0.79 µM
[12]; [20]
  EC50: 0.45 ± 0.04 µM
[13]; [21]
  EC50: 0.46 ± 0.03 µM
[14]; [22]
  EC50: 14 ± 0.54 µM
